Laboratory results reported in publication PMC3907829, “Characterization of an Invertebrate-Type Dopamine Receptor of the American Cockroach, Periplaneta americana” (International Journal of Molecular Sciences, 2014).
Where “and” joins values, the source holds several entries; their conditions need not be identical. Equal entries are not always repeated. Entries after “also recorded” stand apart in the source; their conditions may differ. Structures can show the parent of a compound that is named as a salt. Where two headings read alike, the source gives them in different places.

Key:
PeaDOP2A receptor [1] = molecular target: T1, PeaDOP2A receptor (Periplaneta americana, UniProt V6DNI7); experiment: cAMP production in HEK 293 cells stably expressing PeaDOP2A; format: cell-based; conditions: for effect on dopamine-induced increase in [cAMP]i (antagonist, in words): co-incubation with dopamine; for effect on [cAMP]i (agonist, in words): ligand 10 μM
Procedure: Stably transfected cells were selected in the presence of the antibiotic G418 at 0.8 mg/mL. Isolated foci were propagated and analyzed for the expression of PeaDOP2A/B-HA by immunocytochemistry and Western blot analysis with a commercial anti-HA antibody (anti-HA high affinity; Roche, Penzberg, Germany).

PeaDOP2B receptor [2] = experiment: cAMP production in HEK 293 cells stably expressing PeaDOP2B; format: cell-based, Periplaneta americana; conditions: for change of intracellular cAMP level: biogenic amines 10 μM
Procedure: Approximately 8 μg pcPeadop2A/B-HA vector was separately introduced into exponentially growing HEK 293 cells (~4 × 10^5 cells per 5 cm Petri dish; Greiner, Frickenhausen, Germany) by a modified calcium phosphate method. Stably transfected cells were selected in the presence of the antibiotic G418 at 0.8 mg/mL. Isolated foci were propagated and analyzed for the expression of PeaDOP2A/B-HA by immunocytochemistry and Western blot analysis with a commercial anti-HA antibody (anti-HA high affinity; Roche, Penzberg, Germany).

PeaDOP2B receptor [3] = conditions: PeaDOP2B cell line
[4] = molecular target: Bombyx mori DOP2 receptor; conditions: read-out: EC50 for dopamine-induced cAMP increase; cited from earlier work
C. felis DOP2 receptor = conditions: read-out: EC50 for dopamine-induced cAMP increase; cited from earlier work
[5] = tested on: non-transfected HEK 293 cells; conditions: dopamine 1 nM to 10 μM
Procedure: Assays to determine the ability of PeaDOP2A/B-HA receptors to stimulate adenylyl cyclase activity were performed as described earlier [108]. PeaDOP2A/B-expressing cells were grown in minimal essential medium with GlutaMAX™ (Invitrogen, Karlsruhe, Germany), 10% (v/v) fetal bovine serum, 1% (v/v) non-essential amino acids, and antibiotics (all from Invitrogen, Karlsruhe, Germany). Cells were incubated with ligands for 30 min at 37 °C in the presence of the phosphodiesterase inhibitor isobutylmethylxanthine (IBMX; Sigma, Taufkirchen, Germany; final concentration 100 μM) and lysed by adding 0.5 mL ice-cold ethanol. After 1 h at 4 °C, the lysate was transferred to a reaction tube and lyophilized. The amount of cAMP produced was determined by using the TRK 432 cyclic AMP assay kit (GE Healthcare, Freiburg, Germany).

[6] = molecular target: A. mellifera DOP2 receptor; conditions: read-out: EC50 for dopamine-induced cAMP increase; cited from earlier work
[7] = molecular target: D. melanogaster DOP2 receptor; conditions: read-out: EC50 for dopamine-induced cAMP increase; cited from earlier work
PeaDOP2A receptor [8] = molecular target: T1, PeaDOP2A receptor; conditions: PeaDOP2A cell line
[9] = agonist, HEK 293 cells expressing PeaDOP2A, 30 min, 37 °C, 100 μM IBMX, read-out: EC50 for increasing [cAMP]i
[10] = agonist, log of molar EC50 (negative values), PeaDOP2A-expressing HEK 293 cells
[11] = antagonist, in the presence of 300 nM dopamine, PeaDOP2A-expressing HEK 293 cells, read-out: IC50 for blocking dopamine (300 nM)-induced cAMP increase
[12] = IC50 for blocking dopamine (300 nM)-induced cAMP increase, antagonist, in the presence of 300 nM dopamine, PeaDOP2A-expressing HEK 293 cells
[13] = log IC50, antagonist, log of molar IC50 (negative values), in the presence of 300 nM dopamine

T1 sequence (V6DNI7 entry or part of it): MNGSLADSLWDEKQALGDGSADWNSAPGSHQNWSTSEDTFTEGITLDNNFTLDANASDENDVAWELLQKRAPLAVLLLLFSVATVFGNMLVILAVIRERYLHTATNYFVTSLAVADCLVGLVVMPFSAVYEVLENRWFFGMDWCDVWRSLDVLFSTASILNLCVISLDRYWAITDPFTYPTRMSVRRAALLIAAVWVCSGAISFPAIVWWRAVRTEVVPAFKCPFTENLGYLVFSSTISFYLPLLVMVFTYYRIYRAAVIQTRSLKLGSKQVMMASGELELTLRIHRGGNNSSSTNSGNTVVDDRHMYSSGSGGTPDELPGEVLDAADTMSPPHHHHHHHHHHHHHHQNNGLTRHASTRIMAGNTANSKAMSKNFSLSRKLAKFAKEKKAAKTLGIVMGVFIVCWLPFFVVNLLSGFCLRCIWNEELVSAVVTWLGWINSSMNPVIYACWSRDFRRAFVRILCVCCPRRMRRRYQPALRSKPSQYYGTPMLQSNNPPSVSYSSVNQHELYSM

Cl.Cl.OCCN1CCN(CCC=C2c3ccccc3Sc3ccc(C(F)(F)F)cc32)CC1 (mixture of isomers) [flupentixol, cis(Z)-flupentixol dihydrochloride]
cAMP as percentage of the value with 300 nM dopamine (=100%) (PeaDOP2A receptor [1]; 10 μM antagonist in the presence of 300 nM dopamine, basal level […]): 7.0%
effect on dopamine-induced increase in [cAMP]i (antagonist, in words) (PeaDOP2A receptor [1]; PeaDOP2A-expressing cells): able to counteract the dopamine-induced increase in [cAMP]i fully
effect on dopamine-induced increase in [cAMP]i (antagonist, in words) (PeaDOP2A receptor [1]; PeaDOP2A-expressing cells, listed as cis(Z)-flupentixol): abolished
log IC50 (PeaDOP2A receptor [1]; antagonist, log of molar IC50 (negative values), in the presence of 300 nM dopamine): −8.189

NC1CCc2cc(O)c(O)cc2C1 (racemic) [6,7-ADTN, (±)-2-amino-6,7-dihydroxy-1,2,3,4-tetrahydronaphthalene]
effect on [cAMP]i (agonist, in words) (PeaDOP2A receptor [1]; PeaDOP2A-expressing cells): lead to an increase in [cAMP]i; also recorded: mimicked
EC50 (PeaDOP2A receptor [1]; [9]): 76.4 nM
logEC50 (PeaDOP2A receptor [1]; [10]): −7.117

C=CCN1CCc2c(cc(O)c(O)c2Cl)C(c2ccccc2)C1 (racemic) [6-chloro-APB, (±)-6-Chloro-7,8-dihydroxy-3-allyl-1-phenyl-2,3,4,5-tetrahydro-1H-3-benzazepine]
effect on [cAMP]i (agonist, in words) (PeaDOP2A receptor [1]; PeaDOP2A-expressing cells): lead to an increase in [cAMP]i; also recorded: mimicked
EC50 (PeaDOP2A receptor [1]; [9]): 382 nM
logEC50 (PeaDOP2A receptor [1]; [10]): −6.418

NCC(O)c1ccc(O)cc1 (racemic) [octopamine, (±)-octopamine hydrochloride]
change of intracellular cAMP level (PeaDOP2B receptor [2]): None of the biogenic amines induced a change
effect on [cAMP]i (agonist, in words) (PeaDOP2A receptor [1]; PeaDOP2A-expressing cells): no effect

CN1CCc2cc(Cl)c(O)cc2[C@@H](c2ccccc2)C1 [SCH 23390, R(+)-SCH 23390 hydrochloride]
effect on dopamine-induced increase in [cAMP]i (antagonist, in words) (PeaDOP2A receptor [1]; PeaDOP2A-expressing cells): able to counteract the dopamine-induced increase in [cAMP]i fully
IC50 (PeaDOP2A receptor [1]; [11]): 1790 nM
IC50 (PeaDOP2A receptor [1]; antagonist, log of molar IC50 (negative values), in the presence of 300 nM dopamine, read-out: log IC50 (converted)): 1790 nM

Oc1cc2c(cc1O)[C@@H](c1ccccc1)CNCC2 [SKF 38393, R(+)-SKF 38393 hydrochloride]
effect on [cAMP]i (agonist, in words) (PeaDOP2A receptor [1]; PeaDOP2A-expressing cells): does not show any effect

CN1CCc2cccc3c2[C@H]1Cc1ccc(O)c(O)c1-3 [apomorphine, apomorphine hydrochloride hemihydrate]
effect on [cAMP]i (agonist, in words) (PeaDOP2A receptor [1]; PeaDOP2A-expressing cells): lead to an increase in [cAMP]i

CC(C)C[C@H]1C(=O)N2CCC[C@H]2[C@]2(O)O[C@](NC(=O)[C@@H]3C=C4c5cccc6[nH]c(Br)c(c56)C[C@H]4N(C)C3)(C(C)C)C(=O)N12 [bromocriptine, bromocriptine mesylate]
effect on [cAMP]i (agonist, in words) (PeaDOP2A receptor [1]; PeaDOP2A-expressing cells): fails to increase [cAMP]i

CC(C)(C)[C@]1(O)CCN2C[C@H]3c4ccccc4CCc4cccc(c43)[C@@H]2C1 [butaclamol, S(+)-butaclamol hydrochloride]
IC50 (PeaDOP2A receptor [1]; [12]): 326 nM
effect on dopamine-induced increase in [cAMP]i (antagonist, in words) (PeaDOP2A receptor [1]; PeaDOP2A-expressing cells): able to counteract the dopamine-induced increase in [cAMP]i fully
IC50 (PeaDOP2A receptor [1]; [13]): 326 nM

CN(C)CCCN1c2ccccc2Sc2ccc(Cl)cc21 [chlorpromazine, Chlorpromazine hydrochloride]
IC50 (PeaDOP2A receptor [1]; [12]): 2.7 nM
effect on dopamine-induced increase in [cAMP]i (antagonist, in words) (PeaDOP2A receptor [1]; PeaDOP2A-expressing cells): able to counteract the dopamine-induced increase in [cAMP]i fully; also recorded: abolished
IC50 (PeaDOP2A receptor [1]; [13]): 2.7 nM

NCCc1ccc(O)c(O)c1 [dopamine, dopamine hydrochloride]
change of intracellular cAMP level (PeaDOP2B receptor [2]): None of the biogenic amines induced a change
effect on [cAMP]i, dose-response (PeaDOP2B receptor [2]; dopamine 1 nM to 10 μM): None of the dopamine concentrations showed an effect; also recorded: does not affect [cAMP]i
cAMP production (PeaDOP2A receptor [1]; 10 μM ligand, PeaDOP2A-expressing cells): 300 pmol cAMP/mg protein
EC50 (PeaDOP2A receptor [1]; EC50 for increasing [cAMP]i, agonist, HEK 293 cells expressing PeaDOP2A, 30 min, 37 °C, 100 μM IBMX): 160 nM and 163 nM
concentration for maximal stimulation of cAMP synthesis (PeaDOP2A receptor [1]; PeaDOP2A-expressing cells, dose range 1 nM to 10 μM): ≥ 1 µM
effect on [cAMP]i (agonist, in words) (PeaDOP2A receptor [1]; PeaDOP2A-expressing cells): leads to an increase in [cAMP]i
EC50 (PeaDOP2A receptor [1]; logEC50, agonist, log of molar EC50 (negative values), PeaDOP2A-expressing HEK 293 cells): 166 nM and 163 nM
change in [Ca2+]i upon dopamine incubation (PeaDOP2B receptor [3]): Neither PeaDOP2 receptor cause changes in [Ca^2+]i
EC50 [4]: 1300 nM
EC50 (C. felis DOP2 receptor): 2400 nM
effect on [cAMP]i, dose-response [5]: None of the dopamine concentrations showed an effect
EC50 [6]: 2200 nM
EC50 [7]: 350 nM
change in [Ca2+]i upon dopamine incubation (PeaDOP2A receptor [8]): Neither PeaDOP2 receptor cause changes in [Ca^2+]i

OCCN1CCN(CC/C=C2/c3ccccc3Sc3ccc(C(F)(F)F)cc32)CC1 [flupentixol, cis(Z)-flupentixol dihydrochloride]
IC50 (PeaDOP2A receptor [1]; [11]): 6.5 nM

NCCc1c[nH]cn1 [histamine, histamine dihydrochloride]
change of intracellular cAMP level (PeaDOP2B receptor [2]): None of the biogenic amines induced a change
effect on [cAMP]i (agonist, in words) (PeaDOP2A receptor [1]; PeaDOP2A-expressing cells): no effect

Cl.NCCc1c[nH]c2ccc(O)cc12 [serotonin, 5-hydroxytryptamine hydrochloride]
change of intracellular cAMP level (PeaDOP2B receptor [2]): None of the biogenic amines induced a change
effect on [cAMP]i (agonist, in words) (PeaDOP2A receptor [1]; PeaDOP2A-expressing cells): no effect

NCCc1ccc(O)cc1 [tyramine, tyramine hydrochloride]
change of intracellular cAMP level (PeaDOP2B receptor [2]): None of the biogenic amines induced a change
effect on [cAMP]i (agonist, in words) (PeaDOP2A receptor [1]; PeaDOP2A-expressing cells): no effect
